Measured values taken from patent US12648941B2, “Piperidine urea derivatives for use as inotropic agents” (Helsinn Healthcare SA, priority 2021, dated 2026).
Entries after “also recorded” stand apart in the source; their conditions may differ.

Key:
[1] = test system: phospho (Ser 22-23) cardiac troponin I (cTnl); test: Phospho (Ser 22-23) cTnl western blot in cardiomyocytes; assay type: cell-based, mouse; conditions: SHAM cardiomyocytes; 1 μM; western blot normalized to total cTnl
Method: (§1) AC01/HM01 was suspended in phosphate buffer saline solution (PBS: in mM: NaCl 137, KCl 7, Na2HPO4 10, KH2PO4 […]) and diluted to obtain 3 different concentrations: 0.2, 0.5 or 1 μM in Tyrode solution. We used a concentration range within 0.2-1 μM to ensure that the receptor was activated. […] Prior to contractility and Ca^2+ signaling measurements and biochemical assays, cardiomyocyte suspensions from SHAM and HF hearts were randomized to 3 types of treatments: vehicle, AC01/HM01, or D-Lys3-GHPR-6+AC01/HM01. The treatment with different agents occurred for 15 minutes at room temperature. Some cell suspension aliquots were flash frozen in liquid N2 and stored at −80° C. for later biochemistry analyses. All the experiments were conducted blinded regarding the treatment of cardiomyocytes.
Aliquots of frozen cardiomyocyte suspensions were lysed using NP40 buffer (Thermo Fisher FNN0021, Stockholm, Sweden) supplemented with phosphatase inhibitors (Sigma-Aldrich P2850-1ML, P5726-1ML, Stockholm, Sweden). Protein lysates were separated by electrophoresis and transferred onto membranes. Membranes were incubated with primary antibody: rabbit anti phospho (Ser 22-23) cardiac troponin I (cTnl, Cell Signalling, Leiden, The Netherlands #4004S) and rabbit anti-cTnl (Cell Signalling #4002S, Leiden, The Netherlands). Thereafter, infrared-labelled secondary antibodies (IRDye 680 and IRDye 800, 1:5000, Licor) were used. Immunoreactive bands were analyzed using the Odyssey Infrared Imaging System (Li-Cor, Bad Homburg, Germany). Band densities were quantified with Image J (NIH, Bethesda, USA), normalized to total cTnl and final data was expressed as fold increase compared to bands representing protein extracted from vehicle treated cells.

[2] = test system: cardiomyocytes isolated from hearts of SHAM mice; test: Cardiomyocyte contractility (fractional shortening, % FS), SHAM cardiomyocytes; assay type: cell-based, mouse
Method: Cardiomyocytes were isolated freshly from cardiac ventricles separately from SHAM and HF mice following the protocol developed by the Alliance for Cellular Signalling (AfCS Procedure Protocol ID PP00000125). From each of the 5 SHAM and 3 HF hearts a cell suspension was made and divided into 10 aliquots each, for a total of 50 aliquots from SHAM and 30 aliquots from HF hearts. These aliquots were treated with vehicle, AC01/HM01 or D-Lys3-GHPR-6+AC01/HM01 as stated and used for the subsequent physiological and biochemical experiments.
as §1
Fresh isolated cardiomyocytes were aliquoted in 1.5 mL tubes and incubated with a cell permeable form of the fluorescent Ca^2+ indicator Fluo-3 AM for approximately 20 minutes followed by washing for >5 min. The cells were plated on laminin coated glass bottom dishes (35 mm, Mattek, Ashland, MA, USA), and then mounted in a custom built perfusion/stimulation chamber. Cells were continuously perfused with O2/CO2 (95/5%) bubbled Tyrode solution with the following composition (in mM): NaCl 121, KCl 5.0, CaCl2 1.8, MgCl2 0.5, NaH2PO4 0.4, NaHCO3 24, EDTA 0.1, glucose 5.5, which represents the vehicle solution.
15 aliquots of cardiomyocyte suspension from SHAM and 9 aliquots from HF were randomized to different treatments: vehicle, AC01/HM01 (0.2, 0.5 or 1 μM) or pretreatment with D-Lys3-GHPR-6 (3 μM) followed by AC01/HM01 (1 μM). The cardiomyocytes were electrically stimulated to contract at 1 Hz with supra-threshold voltage using two platinum electrodes attached to the perfusion/stimulation chamber.
Line scan fluorescence images were acquired using a confocal microscope (Biorad; 40× oil immersion lenses). […] ImageJ software (open source software developed by NIH, Bethesda, USA) was used to quantify changes in fluorescence (Ca^2+ transients) and contractility of single cardiomyocytes.
The contractility of cardiomyocytes was measured as the percent of length shortening (fractional shortening; % FS). […]

cortisol = test: Phase 1 SAD pharmacodynamics, serum cortisol (ELISA); assay type: in vivo, human
Method: (§2) Blood samples for determination of growth hormone (GH), insulin-like growth factor-1 (IGF-1), adrenocorticotropic hormone (ACTH), prolactin, cortisol and aldosterone in serum at pre-dose and 0.5, 1, 2, 3, 4, 6 and 24 hours post-dose were collected by venous puncture. All biomarkers were determined using enzyme linked immunosorbent assays (ELISA). Simplified nutritional appetite questionnaire based on appetite assessments at Day −1 after dinner, and on Day 1 pre-dose, 1, 2, 4, 8, and 24 hours after dosing. Stool diary starting on Day 1 until discharge on Day 4.

Protein kinase A (PKA) = test: PKA activity assay in cardiomyocytes (ELISA-based kit); assay type: cell-based, mouse; conditions: isolated cardiomyocytes; 1 μM
Method: as §1
Elisa-based PKA kinase activity assay kit (ab139435, Abcam, Cambridge, UK) was employed to determine PKA activity in cardiomyocytes. Aliquots of frozen cardiomyocytes were thawed and mixed with a lysis buffer containing (mM) the following: 20 MOPS, 50 β-glycerolphosphate, 5 EGTA, 2 EDTA, 1 benzamidine, 1 sodium orthovanadate, 1% NP40, 1 DTT, complete protease inhibitor cocktail (Roche Diagnostics, West Sussex, UK) and phosphatase inhibitor cocktail 3 (Sigma, Gillingham, UK). Approximately 2 μg of protein of each sample were assayed according to the manufacturer's instructions 27.

aldosterone = test: Phase 1 SAD pharmacodynamics, serum aldosterone (ELISA); assay type: in vivo, human
Method: as §2

[3] = test system: adrenocorticotropic hormone (ACTH); test: Phase 1 SAD pharmacodynamics, serum ACTH (ELISA); assay type: in vivo, human; conditions: higher doses; ACTH determined only after 1.0 mg
Method: as §2

Phase 1 SAD, stool diary = assay type: in vivo, human; conditions: between dose groups
Method: as §2

COc1ccc([C@H](C)NC(=O)N(C)[C@@H]2CCN(C)CC2(C)C)c(Cl)c1Cl.Cl [AC01/HM01, 1-[(1S)-1-(2,3-dichloro-4-methoxyphenyl)ethyl]-3-methyl-3-[(4R)-1-methyl-3,3-dimethyl-4-piperidyl]-urea]
phosphorylation of cTnl (Serine 22-23) vs vehicle [1]: decreased phosphorylation levels; also recorded: reduced the levels of phosphorylation | contractility, fractional shortening (FS %) vs vehicle ([2]; 0.5 μM): considerable and statistically significant response | contractility, fractional shortening (FS %) vs vehicle ([2]; 1 μM): considerable and statistically significant response; also recorded: significant increase of contractility; also recorded: greatest contractile effect compared to vehicle; also recorded: positively responded | contractility, length fractional shortening (FS %), concentration dependence ([2]; 0.2, 0.5 and 1 μM vs vehicle, 1 Hz stimulation): increased in a dose-dependent manner; also recorded: dose-dependent increase | concentrations of cortisol (cortisol; 1.0 and 10 mg HM01): rapidly increased above baseline values | cortisol increase, comparison of doses (cortisol; 1.0 vs 10 mg): similar | PKA activity vs vehicle (Protein kinase A (PKA)): decreased; also recorded: reduction of PKA activity | concentrations of aldosterone (aldosterone; 1.0 and 10 mg HM01): rapidly increased above baseline values | aldosterone increase, comparison of doses (aldosterone; 1.0 vs 10 mg): similar | concentrations of ACTH [3]: rapidly increased above baseline values | number of bowel movements per day and number of subjects with bowel movement (Phase 1 SAD, stool diary): no dose-related differences
